According to patent publication US8524778B2, “Biphenyl-4-yl-sulfonic acid arylamides and their use as therapeutic agents” (PIMCO 2664 Limited, priority 2007, dated 2013):
Entries after “also recorded” stand apart in the source; their conditions may differ. Values belong to the molecule of their own block, whether it stands above or below them.

Assays:
[1] = In vivo pharmacokinetics: serum levels after oral dosage (HPLC/UV); settings: rat; for oral absorption (blood serum levels after oral administration): oral 10 mg/kg in corn oil, over 60 minutes, FIG. 1; for metabolic stability: oral 10 mg/kg, in vivo pharmacokinetics assay
Description: Absorption and metabolic stability were studied using an in vivo pharmacokinetics assay. Drug levels assessed using HPLC/UV.
Following overnight starvation, male Wistar rats (250 g) were given a bolus gavage of 500 μL of a solution of test compound in corn oil (5 mg/mL). Blood samples (1 mL, whole blood) were taken at various time intervals and the serum collected following centrifugation. Samples were frozen until required for analysis.
Ethyl acetate (4 mL) was added to the defrosted serum and the samples mixed for 20 minutes. Following centrifugation, the ethyl acetate layer was collected and evaporated under a stream of nitrogen. The residue was reconstituted in mobile phase and 20 μL injected onto the chromatogram.
Standard calibration curves were prepared for each of the test compounds and were linear in the range of 1 ng/mL to 250 ng/mL.
Mobile phase: 60% 25 mM ammonium acetate, pH 4; 40% acetonitrile.
Serum levels of the following compounds, following oral dosage (10 mg/kg) over the course of 60 minutes, were investigated in vivo in rats using an HPLC/UV detection system, as described above: […]

[2] = tested on: mouse collagen-induced arthritis model; assay: Collagen-induced arthritis (CIA) model, joint inflammation scoring; format: in vivo; settings: 10 mg/kg/day i.p.
Description: Collagen-induced arthritis (CIA) was induced in 8-week old male DBA/1 mice, by intradermal injection of 100 μL of chicken collagen type II (2 mg/mL) suspended in complete Freund's adjuvant supplemented with 2 mg/mL devitalised M. Tuberculosis into the base of the tail. This will lead to joint inflammation in >80% of the animals within 4 weeks. Treatment with ABD455 (10 mg/kg/day, delivered in corn oil) was started when joint inflammation became apparent in the first animals (in this experiment 15 days after injection), and the experiment terminated 3 weeks later. For each animal the scores for all four joints were added (maximal score=12).

[3] = tested on: TNFα-stimulated phosphorylation of p42/44 Erk; assay: TNFα-stimulated phosphorylation of p42/44 Erk in mouse macrophages (Western blot); format: cell-based; settings: 10 μM and 25 μM, 1 hour pre-treatment, 5 minutes TNFα, FIG. 5
Description: (§1) Bone marrow cells were flushed out of the long bones of 3-5 month old mice, and cultured in 10 cm tissue culture dishes for three days in α-MEM supplemented with 10% FCS, antibiotics, and recombinant mouse M-CSF (100 ng/mL). The cells were then harvested by trypsinisation, and re-plated in 6 well-plates (3×10^5 cells per well) and cultured in medium as described above for 2 more days. Cells were then serum starved and pre-treated with test compounds for 1 hour, followed by 5 minutes stimulation with TNFα. After stimulation, the cells were washed in PBS and homogenized in lysis buffer containing PBS, 0.1% (w/v) sodium dodecyl sulphate (SDS), 0.5% (w/v) sodium deoxycholate, and 2% (v/v) protease inhibitor cocktail. The cell lysates were centrifuged as 12,000 g for 10 minutes at 4° C., and the supernatant was collected and protein concentration determined using a Bio-Rad protein assay kit. Aliquots of the cell lysate containing 50 μg protein per lane were run on a 10% denaturing acrylamide gel and blotted onto a nylon membrane. The membranes were washed in Tris buffered saline (TBS) and incubated overnight at 4° C. with the relevant primary antibodies (phospho-IκB and phospho-p42/44 Erk, Cell Signalling Technology, 1:1000 dilution). […]

[4] = tested on: TNFα-stimulated phosphorylation of IκB; assay: TNFα-stimulated phosphorylation of IκB in mouse macrophages (Western blot); format: cell-based; settings: 10 μM and 25 μM, 1 hour pre-treatment, 5 minutes TNFα, FIG. 4
Description: as §1

[5] = tested on: macrophage cell line J774; assay: Alamar Blue macrophage J774 viability assay; format: cell-based; settings: Mus musculus; J774 cells, 72 hours with compound, n=5; Biological Study 1 table
Description: The assays are based on the survival of the J774 macrophage cell line; macrophages are closely related to osteoclasts.
J774 cells were plated at 10^4 cells per well in 100 μL αMEM (α Modified Eagle Medium) in 96-well plates and grown overnight. The next day, test compounds were added to the cultures, and cultures were continued for another 72 hours. At the end of the culture period, cell survival was determined using an Alamar Blue assay as previously described (see, e.g., Nociari et al., 1998).
Alamar Blue is an oxidation-reduction sensitive indicator. The dye itself is in the oxidised state, which is blue and non-fluorescent. […] Thus the transformation from oxidised form to reduced form can be measured by fluorimetric or colourimetric means. For fluorescence measurements, 530-560 nm excitation and 590 nm emission wavelengths are typically used. For colourimetric measurements, absorbance is measured at 570 nm (reduced form) and 600 nm (oxidised form) are typically used. A simple calculation is performed to determine the relative quantities of the two species. […]
Briefly, Alamar Blue (Biosource International) was added undiluted to the each well (1:10 v/v, 10 μL). The plate was incubated at 37° C. for 3-4 hours and the fluorescence was measured at 590 nm, with a 25 nm bandwidth. […]

SMILES: O=S(=O)(NCCCCO)c1ccc(-c2ccc(F)cc2)cc1 [ABD200, 4′-fluoro-biphenyl-4-sulfonic acid (4-hydroxybutyl)-amide, reference compound]
oral absorption (blood serum levels after oral administration) [1]: not absorbed

SMILES: Cc1cc(S(=O)(=O)NCCCCO)ccc1-c1ccc(F)cc1F [ABD295, 2′,4′-difluoro-2-methyl-biphenyl-4-sulfonic acid (4-hydroxy-butyl)-amide, reference compound]
sum of the joint inflammation scores (total joint score) of study group ([2]; after 22 days, n=8, untreated group 29, FIG. 3): 17 | oral absorption (blood serum levels after oral administration) [1]: not absorbed

SMILES: CCc1cc(-c2ccc(F)cc2F)ccc1S(=O)(=O)NCCCCO [ABD385, 2′,4′-difluoro-3-ethyl-biphenyl-4-sulfonic acid (4-hydroxybutyl)-amide, reference compound]
oral absorption (blood serum levels after oral administration) [1]: not absorbed

SMILES: O=[N+]([O-])c1ccccc1-c1ccc(S(=O)(=O)Nc2cccc(CO)c2)cc1 [ABD514, 2′-Nitro-biphenyl-4-sulfonic acid (3-hydroxymethyl-phenyl)-amide]
IC50 [5]: > 4 µM

SMILES: O=S(=O)(Nc1ccc(CO)c(CO)c1)c1ccc(-c2ccc(Cl)cc2Cl)cc1 [ABD550, N-(3,4-Bis(hydroxymethyl)phenyl)-2′,4′-dichlorobiphenyl-4-sulfonamide]
IC50 [5]: 1.2 ± 0.5 µM

Now from value to molecule, other results behind:

metabolic stability [1]: good degree of metabolic stability
SMILES: O=S(=O)(Nc1cccc(CO)c1)c1ccc(-c2ccc(Cl)cc2Cl)cc1 [ABD455, 2′,4′-Dichloro-biphenyl-4-sulfonic acid (3-hydroxymethyl-phenyl)-amide]
effect on collagen-induced arthritis (in words) ([2]; 10 mg/kg/day): fully reverse the effects of collagen-induced arthritis; also recorded: much more effective in reversing the effects of collagen-induced arthritis than ABD295 | sum of the joint inflammation scores (total joint score) of study group ([2]; after 21 days, n=10, untreated group 47, FIG. 2): 3 | effect on TNFα-stimulated phosphorylation of p42/44 Erk [3]: completely block | effect on TNFα-stimulated phosphorylation of IκB [4]: completely block

metabolic stability [1]: good degree of metabolic stability
SMILES: O=S(=O)(Nc1cccc(CO)c1)c1ccc(-c2ccc(F)cc2F)cc1 [ABD456, 2′,4′-Difluoro-biphenyl-4-sulfonic acid (3-hydroxymethyl-phenyl)-amide]
effect on TNFα-stimulated phosphorylation of p42/44 Erk [3]: completely block | effect on TNFα-stimulated phosphorylation of IκB [4]: completely block
